Measured values from ChEMBL document CHEMBL1141649, “Inhaled adenosine A(2A) receptor agonists for the treatment of chronic obstructive pulmonary disease” (Bioorg Med Chem Lett, 2008).
The source made the active and inactive calls. No cut-off for these calls is given here.

How the values were obtained:
[1] = Clearance in rat at 1 mg/kg, iv; type: ADME, organism-based; set-up: dose 1 mg/kg, route intravenous; settings: in vivo
[2] = Intrinsic clearance in human liver microsomes; type: ADME, Microsome
[3] = Distribution coefficient, log D at pH 7.4; type: physicochemical; settings: octanol/water
[4] = Cmax in intratracheally dosed rat at 1 mg/kg; type: ADME, organism-based; set-up: dose 1 mg/kg, route endotracheal; settings: in vivo, inhaled or intranasal
[5] = Membrane permeability by PAMPA assay; type: ADME; settings: read-out: permeability
Rattus norvegicus = assay: Unbound clearance in rat at 1 mg/kg, iv; type: ADME, organism-based; set-up: dose 1 mg/kg, route intravenous; settings: in vivo
Adenosine receptor A2a = Adenosine receptor A2a (Homo sapiens, UniProt P29274); assay: Agonist activity at adenosine A2A receptor; type: functional
Sequence of Adenosine receptor A2a (P29274 whole entry): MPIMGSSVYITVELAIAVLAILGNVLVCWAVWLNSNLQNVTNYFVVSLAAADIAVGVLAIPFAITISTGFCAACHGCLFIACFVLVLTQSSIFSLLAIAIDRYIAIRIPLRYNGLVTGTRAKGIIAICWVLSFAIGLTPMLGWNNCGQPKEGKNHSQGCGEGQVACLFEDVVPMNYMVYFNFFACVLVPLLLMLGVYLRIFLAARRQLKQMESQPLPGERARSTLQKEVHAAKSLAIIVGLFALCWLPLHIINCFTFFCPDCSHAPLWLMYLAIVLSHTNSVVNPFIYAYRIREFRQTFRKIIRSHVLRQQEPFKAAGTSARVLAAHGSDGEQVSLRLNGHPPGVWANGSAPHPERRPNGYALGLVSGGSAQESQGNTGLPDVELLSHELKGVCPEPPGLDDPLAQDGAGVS

Cavia porcellus [6] = organism: Cavia porcellus; assay: Toxicity assessed as reduction in diastolic blood pressure in guinea pig; type: organism-based; set-up: scale not given: the % may be the effect or the level left; settings: in vivo
Cavia porcellus [7] = organism: Cavia porcellus; assay: Inhibition of capsaicin-induced bronchoconstriction in guinea pig after 15 mins; type: functional, organism-based
Neutrophil = assay: Inhibition of […]-induced super oxide production in human neutrophils; type: functional, cell-based

O=C(NCCN1CCCCC1)c1nc(NCC(c2ccccc2)c2ccccc2)c2ncn([C@@H]3O[C@H](CO)[C@@H](O)[C@H]3O)c2n1
clearance [1]: 48 mL/min/kg | microsomal CLint [2]: 62.6 µL/min/mg | logD [3]: 2.1 | Cmax [4]: 20 nM | Papp [5]: 0.2 ×10⁻⁶ cm/s | CL (Rattus norvegicus): 755 mL/min/kg | IC50 (Adenosine receptor A2a): 65 nM

CCNC(=O)[C@H]1O[C@@H](n2cnc3c(N)nc(NCCc4ccc(CCC(=O)O)cc4)nc32)[C@H](O)[C@@H]1O [CGS-21680]
clearance [1]: 14 mL/min/kg | microsomal CLint [2]: < 8 µL/min/mg | logD [3]: -0.15 | Activity (Cavia porcellus [6]): 30% | Cmax [4]: 271 nM | Activity (Cavia porcellus [7]): Active | Papp [5]: < 0.2 ×10⁻⁶ cm/s | IC50 (Neutrophil): 47 nM | CL (Rattus norvegicus): 82 mL/min/kg

COC[C@H]1O[C@@H](n2cnc3c(NCC(c4ccccc4)c4ccccc4)nc(NCCN4CCCCC4)nc32)[C@H](O)[C@@H]1O
IC50 (Adenosine receptor A2a): 60 nM

CCNC(=O)[C@H]1O[C@@H](n2cnc3c(NCC(c4ccccc4)c4ccccc4)nc(CNC(=O)NCCN(C4CCCCC4)C(C)(C)C)nc32)[C@H](O)[C@@H]1O
IC50 (Adenosine receptor A2a): 33 nM

CCNC(=O)[C@H]1O[C@@H](n2cnc3c(NCC(c4ccccc4)c4ccccc4)nc(CNC(=O)NCCN4CCCCC4)nc32)[C@H](O)[C@@H]1O
IC50 (Adenosine receptor A2a): 17 nM

CCNC(=O)[C@H]1O[C@@H](n2cnc3c(NCC(c4ccccc4)c4ccccc4)nc(CNC(=O)NCCN(C(C)C)C(C)C)nc32)[C@H](O)[C@@H]1O
IC50 (Adenosine receptor A2a): 11 nM

COC[C@H]1O[C@@H](n2cnc3c(NCC(c4ccccc4)c4ccccc4)nc(NCCC4CCCCC4)nc32)[C@H](O)[C@@H]1O
IC50 (Adenosine receptor A2a): 1010 nM

COC[C@H]1O[C@@H](n2cnc3c(NCC(c4ccccc4)c4ccccc4)nc(CCNC4CCCCC4)nc32)[C@H](O)[C@@H]1O
IC50 (Adenosine receptor A2a): 28 nM

COC[C@H]1O[C@@H](n2cnc3c(NCC(c4ccccc4)c4ccccc4)nc(CNC4CCCCC4)nc32)[C@H](O)[C@@H]1O
IC50 (Adenosine receptor A2a): 100 nM

CCNC(=O)[C@H]1O[C@@H](n2cnc3c(NCC(c4ccccc4)c4ccccc4)nc(NCCC4CCCCC4)nc32)[C@H](O)[C@@H]1O
IC50 (Adenosine receptor A2a): 1000 nM

CCNC(=O)[C@H]1O[C@@H](n2cnc3c(NCC(c4ccccc4)c4ccccc4)nc(C(=O)NCCN4CCCCC4)nc32)[C@H](O)[C@@H]1O
IC50 (Adenosine receptor A2a): 9 nM

CCNC(=O)[C@H]1O[C@@H](n2cnc3c(NCC(c4ccccc4)c4ccccc4)nc(CNC(=O)NCCN(C(C)C)C4CCCC4)nc32)[C@H](O)[C@@H]1O
clearance [1]: 45 mL/min/kg | microsomal CLint [2]: 135 µL/min/mg | logD [3]: 2 | Cmax [4]: 1.8 nM | Papp [5]: < 0.7 ×10⁻⁶ cm/s | CL (Rattus norvegicus): 3500 mL/min/kg | IC50 (Adenosine receptor A2a): 6 nM
